Common to all, as to experiment: biochemical
Holding throughout (design): DiscoveRx KINOMEscan active site-directed competition binding; percent of control kinase bound to immobilised ligand

One assay deals with T1, AXL (Homo sapiens, UniProt P30530).
T1 sequence (P30530 1-894): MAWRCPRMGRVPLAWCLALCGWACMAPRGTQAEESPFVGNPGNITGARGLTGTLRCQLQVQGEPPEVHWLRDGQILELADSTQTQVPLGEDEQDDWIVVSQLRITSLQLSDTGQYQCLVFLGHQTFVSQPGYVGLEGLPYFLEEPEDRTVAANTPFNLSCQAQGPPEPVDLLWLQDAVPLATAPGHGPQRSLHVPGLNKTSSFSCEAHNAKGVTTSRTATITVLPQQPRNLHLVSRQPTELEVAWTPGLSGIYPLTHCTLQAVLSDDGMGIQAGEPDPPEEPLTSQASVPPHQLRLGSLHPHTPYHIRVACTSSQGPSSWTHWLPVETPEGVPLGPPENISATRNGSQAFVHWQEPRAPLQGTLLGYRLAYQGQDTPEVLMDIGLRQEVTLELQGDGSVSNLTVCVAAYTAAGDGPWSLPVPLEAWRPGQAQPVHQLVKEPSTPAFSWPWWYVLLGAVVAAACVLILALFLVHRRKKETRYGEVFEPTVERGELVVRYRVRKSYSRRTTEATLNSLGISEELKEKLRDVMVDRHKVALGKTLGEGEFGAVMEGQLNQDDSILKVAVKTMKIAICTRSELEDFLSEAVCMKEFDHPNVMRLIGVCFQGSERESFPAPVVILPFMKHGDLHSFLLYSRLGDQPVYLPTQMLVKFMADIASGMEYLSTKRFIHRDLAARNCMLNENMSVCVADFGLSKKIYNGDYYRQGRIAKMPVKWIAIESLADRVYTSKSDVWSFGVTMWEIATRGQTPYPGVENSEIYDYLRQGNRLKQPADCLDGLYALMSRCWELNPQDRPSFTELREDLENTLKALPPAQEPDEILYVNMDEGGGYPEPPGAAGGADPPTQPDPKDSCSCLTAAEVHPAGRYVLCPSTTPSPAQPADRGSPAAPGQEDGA

For another assay, the target named is T2, FLT3(D835V) (Homo sapiens, UniProt P36888, D835V).
T2 sequence (P36888 1-993 D835V): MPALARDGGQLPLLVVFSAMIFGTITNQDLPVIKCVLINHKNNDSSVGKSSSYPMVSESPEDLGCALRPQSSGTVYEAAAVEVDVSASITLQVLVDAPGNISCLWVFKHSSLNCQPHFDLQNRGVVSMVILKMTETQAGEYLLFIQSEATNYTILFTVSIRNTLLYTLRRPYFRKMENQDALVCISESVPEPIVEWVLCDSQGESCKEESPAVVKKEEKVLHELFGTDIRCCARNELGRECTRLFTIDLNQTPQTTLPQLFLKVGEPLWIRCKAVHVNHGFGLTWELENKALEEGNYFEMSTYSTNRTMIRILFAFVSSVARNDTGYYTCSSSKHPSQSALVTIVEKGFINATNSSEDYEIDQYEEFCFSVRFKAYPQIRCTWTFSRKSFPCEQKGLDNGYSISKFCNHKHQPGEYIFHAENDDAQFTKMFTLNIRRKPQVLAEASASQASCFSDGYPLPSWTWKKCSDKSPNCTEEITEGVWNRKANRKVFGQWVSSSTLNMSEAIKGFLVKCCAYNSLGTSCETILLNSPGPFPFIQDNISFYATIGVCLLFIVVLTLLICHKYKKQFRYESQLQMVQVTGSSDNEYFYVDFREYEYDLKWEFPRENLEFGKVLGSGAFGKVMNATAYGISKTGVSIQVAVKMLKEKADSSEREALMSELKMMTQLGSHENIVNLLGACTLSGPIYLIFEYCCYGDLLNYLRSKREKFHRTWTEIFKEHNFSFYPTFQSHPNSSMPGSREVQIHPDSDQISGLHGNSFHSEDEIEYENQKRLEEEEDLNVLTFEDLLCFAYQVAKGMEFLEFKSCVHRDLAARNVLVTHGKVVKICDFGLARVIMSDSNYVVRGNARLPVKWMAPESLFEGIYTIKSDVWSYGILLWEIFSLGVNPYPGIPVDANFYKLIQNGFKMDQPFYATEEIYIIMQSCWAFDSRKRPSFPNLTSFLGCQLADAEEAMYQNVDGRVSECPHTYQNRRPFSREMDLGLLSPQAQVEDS

A further assay addresses FLT4 (Homo sapiens, UniProt P35916).
A further assay has as its target RET(V804M) (Homo sapiens, UniProt P07949, V804M).
[1] abbreviates: read-out: Niraparib (MK-4827) / %Ctrl @ 10000nM.
[2] abbreviates: read-out: Olaparib / %Ctrl @ 10000nM.
The mark [3] stands for this setting: read-out: Rucaparib / %Ctrl @ 10000nM, binding competition, % of control.
Setting [4] is: read-out: Talazoparib (BMN 673) / %Ctrl @ 10000nM.

Read-outs that look alike come from different tables or passages of the source.

Chain of RET(V804M) (P07949 whole entry V804M): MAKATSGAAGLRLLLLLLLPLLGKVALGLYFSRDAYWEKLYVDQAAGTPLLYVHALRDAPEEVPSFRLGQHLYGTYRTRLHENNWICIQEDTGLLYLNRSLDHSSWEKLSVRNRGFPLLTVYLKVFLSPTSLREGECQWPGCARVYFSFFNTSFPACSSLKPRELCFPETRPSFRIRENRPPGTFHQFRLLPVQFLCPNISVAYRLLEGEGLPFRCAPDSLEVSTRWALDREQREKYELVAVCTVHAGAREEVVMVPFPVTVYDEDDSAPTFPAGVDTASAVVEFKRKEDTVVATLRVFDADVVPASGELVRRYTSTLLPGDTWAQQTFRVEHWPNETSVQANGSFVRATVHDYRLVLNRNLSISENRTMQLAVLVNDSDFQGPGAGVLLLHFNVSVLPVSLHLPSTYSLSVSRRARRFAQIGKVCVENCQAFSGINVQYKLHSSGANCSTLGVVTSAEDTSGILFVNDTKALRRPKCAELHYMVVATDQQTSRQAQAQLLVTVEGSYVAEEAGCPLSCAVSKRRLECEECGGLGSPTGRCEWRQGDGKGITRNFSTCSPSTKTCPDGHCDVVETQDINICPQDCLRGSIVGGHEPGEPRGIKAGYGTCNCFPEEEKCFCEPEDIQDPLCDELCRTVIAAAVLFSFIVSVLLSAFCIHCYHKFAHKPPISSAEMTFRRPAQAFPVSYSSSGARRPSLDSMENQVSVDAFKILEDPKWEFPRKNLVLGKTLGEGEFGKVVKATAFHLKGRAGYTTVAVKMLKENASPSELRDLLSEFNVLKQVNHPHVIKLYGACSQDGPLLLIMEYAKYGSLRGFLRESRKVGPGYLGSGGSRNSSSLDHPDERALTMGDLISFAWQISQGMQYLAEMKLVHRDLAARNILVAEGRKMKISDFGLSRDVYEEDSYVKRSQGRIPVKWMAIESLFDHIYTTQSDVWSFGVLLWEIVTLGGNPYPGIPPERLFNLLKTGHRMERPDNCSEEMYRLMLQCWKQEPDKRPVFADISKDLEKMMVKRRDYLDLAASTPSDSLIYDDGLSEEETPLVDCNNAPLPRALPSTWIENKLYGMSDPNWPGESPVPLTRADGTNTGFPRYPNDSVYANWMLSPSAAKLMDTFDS
Chain of FLT4 (P35916 whole entry): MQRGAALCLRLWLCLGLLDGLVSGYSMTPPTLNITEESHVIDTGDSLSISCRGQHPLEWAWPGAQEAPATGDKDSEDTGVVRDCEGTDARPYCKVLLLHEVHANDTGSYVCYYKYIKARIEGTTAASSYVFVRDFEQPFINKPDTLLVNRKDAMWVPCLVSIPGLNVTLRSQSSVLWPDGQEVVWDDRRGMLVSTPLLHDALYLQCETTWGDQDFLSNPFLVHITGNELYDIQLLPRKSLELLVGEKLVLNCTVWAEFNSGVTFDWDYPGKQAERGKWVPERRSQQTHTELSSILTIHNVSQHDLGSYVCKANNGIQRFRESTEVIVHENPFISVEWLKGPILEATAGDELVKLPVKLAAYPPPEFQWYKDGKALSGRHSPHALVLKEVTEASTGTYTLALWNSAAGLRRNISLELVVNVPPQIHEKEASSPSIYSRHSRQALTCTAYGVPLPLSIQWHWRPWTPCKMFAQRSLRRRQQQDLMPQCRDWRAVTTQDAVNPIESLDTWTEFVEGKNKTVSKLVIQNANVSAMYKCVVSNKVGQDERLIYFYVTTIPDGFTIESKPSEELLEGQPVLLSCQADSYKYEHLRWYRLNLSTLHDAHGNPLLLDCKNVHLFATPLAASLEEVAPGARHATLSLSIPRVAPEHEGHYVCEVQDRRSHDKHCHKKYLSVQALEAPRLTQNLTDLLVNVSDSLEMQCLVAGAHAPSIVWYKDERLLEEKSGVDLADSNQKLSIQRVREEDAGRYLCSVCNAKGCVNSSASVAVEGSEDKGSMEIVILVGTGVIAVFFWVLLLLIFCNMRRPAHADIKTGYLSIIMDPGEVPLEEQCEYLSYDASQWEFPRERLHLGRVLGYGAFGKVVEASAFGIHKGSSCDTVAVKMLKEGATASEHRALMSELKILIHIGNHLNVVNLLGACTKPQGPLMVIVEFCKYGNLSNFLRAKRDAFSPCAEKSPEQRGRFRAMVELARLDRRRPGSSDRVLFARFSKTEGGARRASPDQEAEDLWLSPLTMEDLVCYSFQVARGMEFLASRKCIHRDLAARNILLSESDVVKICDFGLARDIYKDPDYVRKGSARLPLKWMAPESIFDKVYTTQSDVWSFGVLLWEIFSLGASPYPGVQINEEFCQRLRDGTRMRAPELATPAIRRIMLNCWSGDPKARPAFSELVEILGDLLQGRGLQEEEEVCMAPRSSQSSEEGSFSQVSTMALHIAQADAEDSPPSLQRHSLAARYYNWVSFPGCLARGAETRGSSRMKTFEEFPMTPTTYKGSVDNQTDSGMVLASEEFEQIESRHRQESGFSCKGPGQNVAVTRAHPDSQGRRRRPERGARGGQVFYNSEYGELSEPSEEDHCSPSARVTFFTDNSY

On to `NC(=O)c1cccc2cn(-c3ccc([C@@H]4CCCNC4)cc3)nc12` [Niraparib], for which the percent of control binding at 10 µM on AXL (setting [1]) was found to be 59%; at FLT3(D835V) (setting [1]) it was 83%; on FLT4 (setting [1]), 99%; on RET(V804M) (setting [1]) it was 79%.

In the case of `O=C(c1cc(Cc2n[nH]c(=O)c3ccccc23)ccc1F)N1CCN(C(=O)C2CC2)CC1` [Olaparib], the percent of control binding at 10 µM stood at 100% on AXL (setting [2]), 100% on FLT3(D835V) (setting [2]), 97% at FLT4 (setting [2]) and 90% at RET(V804M) (setting [2]).

Turning to `CNCc1ccc(-c2[nH]c3cc(F)cc4c3c2CCNC4=O)cc1` [Rucaparib], the percent of control binding at 10 µM worked out at 82% on AXL (setting [3]), 95% on FLT4 (setting [3]) and 99% on RET(V804M) (setting [3]). Further, the “Rucaparib / %Ctrl @ 10000nM” value at FLT3(D835V) (binding competition, % of control) worked out at 15%.

With `Cn1ncnc1[C@H]1c2n[nH]c(=O)c3cc(F)cc(c23)N[C@@H]1c1ccc(F)cc1` [Talazoparib], the percent of control binding at 10 µM at AXL (setting [4]) came to 100%; on FLT3(D835V) (setting [4]), 100%; at FLT4 (setting [4]) it was 93%; on RET(V804M) (setting [4]), 97%.

Values taken from article PMC7026418, “The kinase polypharmacology landscape of clinical PARP inhibitors” (Scientific Reports, 2020).
